The results in this text go back to patent US20080044390A1, “Methods and compositions for the treatment of neurodegenerative disorders” (priority 2006, published 2008).

Structures can show the parent of a compound that is named as a salt.

The test system of test [1] is PC12/HttN90Q103 cells. Briefly: CellTiter-Blue assay, rescue of HttN90Q103-induced cell death. The class given is cell-based, rat. The text has this:
(§1) In this stable PC12 line (PC12/HttN90Q103), transcription of the Htt transgene is driven by an ecdysone-regulated promoter such that the expression of HttN90Q103 can be turned on or off by the addition or removal of the non-steroidal ecdysone analog tebufenozide (teb).
(§2) Using the engineered PC12/HttN90Q103 cell line together with Perkin Elmer's ATPlite™ assay kit or CellTiter-Blue™ assay, a high throughput assay to screen small molecules for their ability to prevent mutant Htt exon 1-induced cell death was developed and optimized.
(§3) The following formulas were used to calculate mutant Htt-induced cytotoxicity and test compound rescue: % killing=[(un-induced−induced-DMSO treated)/un-induced]×100 % rescue=[(drug treated−induced-DMSO treated)/(un-induced−induced-DMSO treated)]×100
For single-agent ranking, the assay was performed in 384-well plates to obtain duplicate dose response curves in 12-step dilutions with a dosing ratio f=2 over 3 orders of magnitude.
The uncertainty of each fitted parameter was estimated from the range over which the change in reduced chi-squared was less than one, or less than minimum reduced chi-squared if that minimum exceeded one, to allow for underestimated σI errors.
(§4) Day 1—Add Compounds 4 hours post-induction • 1) Remove compound plates from dessicator. • 2) Using the PlateMate, prepare dilution plate with 100 μL per well of the complete cell medium at room temperature in clear untreated 384-well plates. • 3) Using the MiniTrak, make compound dilution plates: 1 μL from each well of stock plates into 100 μL of media in the dilution plate for a 1:100 dilution (10× stock in media). • 4) Using the MiniTrak, add 4.5 μL of the diluted stock to each well of cells in assay plates. • 5) Make positive control solution: dilute 20 mM stock of BOC-D-FMK in media for a 10× stock. • 6) Manually add 4.5 μL positive control to C1-N1. • 7) Incubate plates at 37° C. for three days. • (for ranking combinations, steps 5 and 6 are omitted as there is positive control on the compound plates)
Day 4—CellTiter-Blue™ assay • 1) Make solution of 5% CellTiter-Blue™ in Q103 media. • 2) Using the Multidrop, add 40 μL of 5% CellTiter-Blue™ solution to each well of the assay plates. • 3) Incubate plates with CellTiter-Blue™ at 37° C.
On the technique in general: Alamar Blue is a resazurin reagent that responds to reducing activity.

Test [2] concerns PC12/HttN90Q103 cells. Briefly: ATPlite assay, rescue of HttN90Q103-induced cell death. Type of test: cell-based, rat.
Description: as §1, §2, §3
For single-agent ranking, the assay was performed in 384-well plates to obtain duplicate dose response curves in 12-step dilutions with a dosing ratio f=2 over 3 orders of magnitude. […]
as §4
Day 4—Perform ATPlite™ Assay • 1) Take plates out of the incubator. • 2) Using the PlateMate, add 40 μL of ATPlite™ 1-step solution (Perkin Elmer) to each well of the assay plates. • 3) Wait ten minutes to allow plates to dark-adapt. • 4) Read luminescence intensity in Wallac plate reader using […]
Background: Cellular ATP, detected with luciferase, serves as a proxy for viable cell number.

[3] abbreviates: CellTiter-Blue, single agent, 250 nM tebufenozide induction.
[4] abbreviates: CellTiter-Blue, single agent, sigmoidal fit of 12-step dose response, read-out: EC50.
[5] abbreviates: Rattus norvegicus, PC-12, CellTiter-Blue, single agent, 250 nM tebufenozide induction, read-out: Max Effect (% rescue).
Setting [6] is: Rattus norvegicus, PC-12, CellTiter-Blue, single agent, sigmoidal fit of 12-step dose response, read-out: EC50.
Where [7] appears, read: Rattus norvegicus, PC-12, read-out: Max Effect (% rescue).

For `CN1c2c(nc(N)[nH]c2=O)NCC1CNc1ccc(C(=O)N[C@@H](CCC(=O)O)C(=O)O)cc1` (stereo partly drawn) [5-methyl-5-6-7-8-tetrahydropteroylglutamic-acid], the “Max Effect (% rescue)” value in the test on PC12/HttN90Q103 cells [1] (setting [3]) was found to be 34%. For the same compound, the EC50 (usually the midpoint of the concentration-response curve) with PC12/HttN90Q103 cells [1] (setting [4]) amounted to 9.3 µM.

In the case of `CC(=O)c1ccc(S(=O)(=O)NC(=O)NC2CCCCC2)cc1` [Acetohexamide], the Emax in the test on PC12/HttN90Q103 cells [1] (setting [5]) stood at 18%. The EC50 in the test on PC12/HttN90Q103 cells [1] (setting [6]) stood at 3.9 µM.

As for `NC(=O)c1ncn([C@@H]2O[C@H](CO)[C@@H](O)[C@H]2O)c1N` [Aicar], the “Max Effect (% rescue)” value in the test with PC12/HttN90Q103 cells [1] (setting [3]) is 23%. The EC50 in the test on PC12/HttN90Q103 cells [1] (setting [4]) was found to be 14.1 µM.

For the compound `C=C1/C(=C\C=C2/CCC[C@]3(C)[C@@H]([C@H](C)CCCC(C)(C)O)CC[C@@H]23)C[C@@H](O)C[C@@H]1O` [Calcitriol], the EC50 in the test with PC12/HttN90Q103 cells [1] (Rattus norvegicus, PC-12) amounted to 0.01 µM. Further, the Emax with PC12/HttN90Q103 cells [1] (setting [7]) was 33%.

As to `C[N+](C)(C)CCOC(N)=O` [Carbachol], the Emax in the test on PC12/HttN90Q103 cells [1] (setting [5]) turned out to be 15%. Moreover, the EC50 in the test with PC12/HttN90Q103 cells [1] (setting [6]) stood at 6.8 µM.

As for `COC(=O)CC[C@@H](C)[C@H]1CC[C@H]2[C@@H]3[C@H](OC(C)=O)C[C@@H]4C[C@H](OC(C)=O)CC[C@]4(C)[C@H]3CC[C@]12C` [Chenodeoxycholic acid diacetate methyl ester], the “Max Effect (% rescue)” value in the test with PC12/HttN90Q103 cells [1] (setting [3]) came out at 24%. In addition, in the test with PC12/HttN90Q103 cells [1] (setting [4]), the EC50 turned out to be 2.1 µM.

In the case of `O=c1cc(-c2ccccc2)oc2cc(O)cc(O)c12` [Chrysin], in the test on PC12/HttN90Q103 cells [1] (setting [5]), the Emax worked out at 14%. Besides, the EC50 in the test on PC12/HttN90Q103 cells [1] (setting [6]) is 1.1 µM.

As to `Oc1ccc(Cl)cc1Cc1ccccc1` [Clorophene], in the test on PC12/HttN90Q103 cells [1] (setting [5]), the Emax is 30%. In the test with PC12/HttN90Q103 cells [1] (setting [6]), the EC50 turned out to be 0.9 µM.

In the case of `C[C@]12CC[C@H](O)CC1=CC[C@@H]1[C@@H]2CC[C@]2(C)C(=O)CC[C@@H]12` [Dehydroepiandrosterone], the Emax in the test on PC12/HttN90Q103 cells [1] (setting [5]) came to 21%. The EC50 in the test on PC12/HttN90Q103 cells [1] (setting [6]) stood at 11 µM.

Consider `C[C@H]1O[C@@H](O[C@H]2[C@@H](O)C[C@H](O[C@H]3[C@@H](O)C[C@H](O[C@H]4CC[C@@]5(C)[C@H](CC[C@@H]6[C@@H]5CC[C@]5(C)[C@@H](C7=CC(=O)OC7)CC[C@]65O)C4)O[C@@H]3C)O[C@@H]2C)C[C@H](O)[C@@H]1O` [Digitoxin], for which the Emax in the test on PC12/HttN90Q103 cells [1] (setting [5]) stood at 11%. Besides, in the test with PC12/HttN90Q103 cells [1] (setting [6]), the EC50 turned out to be 3.5 µM.

As for `c1ccc2c(c1)[I+]c1ccccc1-2` [Diphenyleneiodonium], in the test on PC12/HttN90Q103 cells [1] (setting [5]), the Emax turned out to be 26%. In addition, the EC50 in the test on PC12/HttN90Q103 cells [1] (setting [6]) is 0.1 µM.

As for `C=C1C[C@@H]2[C@H](CC[C@]3(C)C(=O)CC[C@@H]23)[C@@]2(C)C=CC(=O)C=C12` [Exemestane], in the test on PC12/HttN90Q103 cells [1] (setting [5]), the Emax turned out to be 16%. In addition, the EC50 with PC12/HttN90Q103 cells [1] (setting [6]) was 1.5 µM.

With `COc1ccc(CNC(=O)Nc2ncc([N+](=O)[O-])s2)cc1` [GSK-3β inhibitor VIII (AR-A014418), N-(4-Methoxybenzyl)-N′-(5-nitro-1,3-thiazol-2-yl)urea], in the test with PC12/HttN90Q103 cells [1] (setting [5]), the Emax turned out to be 43%. In the test on PC12/HttN90Q103 cells [1] (setting [6]), the EC50 turned out to be 3.6 µM.

On to `O=C1NCCC1=Cc1ccc2c(c1)OCO2` [Heat shock protein inhibitor I (KNK-437), 3,4-methylenedioxy-benzylidine-γ-butyrolactam], for which the “Max Effect (% rescue)” value with PC12/HttN90Q103 cells [1] (setting [3]) stood at 20%. For the same compound, the EC50 with PC12/HttN90Q103 cells [1] (setting [4]) came to 8.2 µM.

With `C=C[C@@]1(C)CC(=O)[C@]2(O)[C@@]3(C)[C@@H](O)CCC(C)(C)[C@@H]3[C@H](OC(=O)CCN(C)C)[C@H](OC(C)=O)[C@@]2(C)O1` [NKH-477, 6-(3-dimethylaminopropionyl)forskolin], the “Max Effect (% rescue)” value in the test with PC12/HttN90Q103 cells [1] (setting [3]) is 69%. The EC50 in the test with PC12/HttN90Q103 cells [1] (setting [4]) turned out to be 7.2 µM.

Take `CO[C@@H]1[C@@H](OC(N)=O)[C@@H](O)[C@H](Oc2ccc3c(O)c(NC(=O)c4ccc(O)c(CC=C(C)C)c4)c(=O)oc3c2C)OC1(C)C` [Novobiocin]: in the test on PC12/HttN90Q103 cells [1] (setting [5]), the Emax came to 27%. The EC50 with PC12/HttN90Q103 cells [1] (setting [6]) is 3 µM.

Consider `Cl.NCCc1ccc(S(=O)(=O)F)cc1` [Pefabloc SC], for which the “Max Effect (% rescue)” value with PC12/HttN90Q103 cells [1] (setting [3]) is 34%. Moreover, the EC50 in the test with PC12/HttN90Q103 cells [1] (setting [4]) came out at 6.8 µM.

Turning to `Cc1ccc(C(=O)Cn2c3c(sc2=N)CCCC3)cc1` [Pifithrin α, 2-(2-imino-4,5,6,7-tetrahydrobenzothiazol-3-yl)-1-p-tolylethanone hydrobromide], the Emax in the test with PC12/HttN90Q103 cells [1] (setting [5]) was found to be 15%. Moreover, in the test with PC12/HttN90Q103 cells [1] (setting [6]), the EC50 was 6 µM.

For the compound `CC(=O)[C@H]1CC[C@H]2[C@@H]3CC=C4C[C@@H](O)CC[C@]4(C)[C@H]3CC[C@]12C` [Pregnenolone, 5-pregnen-3β-ol-20-one], the “Max Effect (% rescue)” value with PC12/HttN90Q103 cells [1] (setting [3]) is 22%. Besides, the EC50 in the test on PC12/HttN90Q103 cells [1] (setting [4]) is 11.9 µM.

As to `C=CC[C@@H]1/C=C(\C)C[C@H](C)C[C@H](OC)[C@H]2O[C@@](O)(C(=O)C(=O)N3CCCC[C@H]3C(=O)O[C@H](/C(C)=C/[C@@H]3CC[C@@H](O)[C@H](OC)C3)[C@H](C)[C@@H](O)CC1=O)[C@H](C)C[C@@H]2OC` [Tacrolimus (FK-506), Tacrolimus], the Emax in the test with PC12/HttN90Q103 cells [1] (setting [5]) amounted to 36%. The EC50 in the test with PC12/HttN90Q103 cells [1] (setting [6]) is 0.1 µM.

As for `C[C@]12C=CC(=O)C=C1CC[C@@H]1[C@@H]2CC[C@]2(C)OC(=O)CC[C@@H]12` [Testolactone], in the test on PC12/HttN90Q103 cells [1] (setting [5]), the Emax was 52%. In the test with PC12/HttN90Q103 cells [1] (setting [6]), the EC50 turned out to be 7.6 µM.

For the compound `Cc1c(C)c2c(c(C)c1O)CCC(C)(COc1ccc(CC3SC(=O)NC3=O)cc1)O2` (stereo not drawn) [Troglitazone], the Emax in the test on PC12/HttN90Q103 cells [1] (setting [5]) amounted to 49%. Further, in the test on PC12/HttN90Q103 cells [1] (setting [6]), the EC50 stood at 17.8 µM.

As to `CN1CCN(C(=O)OC2c3nccnc3C(=O)N2c2ccc(Cl)cn2)CC1` (stereo not drawn) [Zopiclone], the concentration for a half-maximal effect (EC50) in the test on PC12/HttN90Q103 cells [2] (Rattus norvegicus, PC-12) is 6.7 µM. For the same compound, the Emax in the test on PC12/HttN90Q103 cells [2] (setting [7]) is 25%.

In the case of Maduramicin NH4, the “Max Effect (% rescue)” value in the test with PC12/HttN90Q103 cells [2] (ATPlite, single agent, 250 nM tebufenozide induction) is listed as 19%. For the same compound, the EC50 with PC12/HttN90Q103 cells [2] (ATPlite, single agent, sigmoidal fit of 12-step dose response, read-out: EC50) came to 0.04 µM.
